The record followed here is paper PMC9286316, “Importance of the Cyclic Cystine Knot Structural Motif for Immunosuppressive Effects of Cyclotides” (ACS Chemical Biology, 2021).

The subject of this assay is human PBMCs. In words: Lymphocyte proliferation assay (CFSE, anti-CD3/anti-CD28 stimulated PBMC, flow cytometry). The class given is cell-based. The conditions noted are these: 72 h; for antiproliferative activity (Figure 2B): tested concentration range 1–100 μg/mL peptide, three biological replicates. Here is the method: Blood of healthy donors was obtained from the Blood Transfusion Centre (University Medical Centre Freiburg, Freiburg Germany), and all experiments conducted on human material were approved by the ethics committee of the University Freiburg (55/14). Venous blood was centrifuged to isolate peripheral blood mononuclear cells on a LymphoPrep gradient (density: 1.077 g/cm^3, 20 min, 500 × g, 20 °C; Progen, Heidelberg, Germany). PBMCs were collected and washed twice with phosphate buffer saline (PBS; GE Healthcare, München), and cell viability and concentration were determined using the trypan blue exclusion test. Cells were cultured in RPMI 1640 medium supplemented with 10% heat-inactivated fetal calf serum, 2 mM L-glutamine, 100 U/mL penicillin, and […] streptomycin (all from Life Technologies, Paisley, UK) and cultured at 37 °C in a humidified incubator with a 5% CO2/95% air atmosphere.
Harvested PBMC were washed twice in cold PBS and resuspended in PBS at a concentration of 5 × 10^6 cells per mL. Carboxyfluorescein diacetate succinimidyl ester (CFSE; 5 μM; Sigma-Aldrich, St. Louis, MO) staining was performed to determine T-cell proliferation. Cells were stained with CFSE and incubated for 10 min at 37 °C. The staining reaction was stopped by washing twice with complete growth medium. Afterward, stained cells were stimulated with anti-human CD3 (clone OKT3) and anti-human CD28 (clone 28.6) mAbs (each 100 ng/mL; both from eBioscience, Frankfurt, Germany) treated as indicated in the figure legends, with medium alone, cyclosporine A (CsA; 5 μg/mL, purity ≥99%, Sandimmun 50 mg/mL, Novartis Pharma, Basel, Switzerland), camptothecin (CPT; 300 μM; purity >98%; Tocris, Bristol, UK), or in the presence of the indicated concentrations of peptides for 72 h at 37 °C in a humidified incubator with a 5% CO2/95% air atmosphere. Cell division progress was analyzed by flow cytometric analysis using a FACS Calibur analyzer (BD Bioscience, Becton Dickinson, Franklin Lakes, NJ). Data were generated using FlowJo software. For further analysis of FACS raw data Microsoft Excel and SPSS software (IBM, Version 22.0, Armonk, USA) were applied. All bioactivity data are represented as mean ± standard deviation (SD) for the indicated number of independent experiments. Statistical significance was determined by a one-way ANOVA followed by Dunnett’s post hoc pairwise comparisons. The asterisks (*p < 0.05, **p < 0.01, ***p < 0.001) represent significant differences from the respective control.

As to `CC(C)C[C@@H]1NC(=O)CNC(=O)[C@H](CC(N)=O)NC(=O)[C@H](CCCNC(=N)N)NC(=O)[C@H]([C@@H](C)O)NC(=O)[C@H](CSCC(N)=O)NC(=O)[C@H](C(C)C)NC(=O)[C@@H]2CCCN2C(=O)[C@H](Cc2c[nH]c3ccccc23)NC(=O)[C@H](CO)NC(=O)[C@H](CSCC(N)=O)NC(=O)[C@H](CCCCN)NC(=O)[C@H](CSCC(N)=O)NC(=O)CNC(=O)[C@@H]2CCCN2C(=O)[C@H]([C@@H](C)O)NC(=O)[C@H](CC(N)=O)NC(=O)[C@H](CSCC(N)=O)NC(=O)[C@H]([C@@H](C)O)NC(=O)CNC(=O)CNC(=O)[C@H](C(C)C)NC(=O)[C@H](CSCC(N)=O)NC(=O)[C@H]([C@@H](C)O)NC(=O)[C@H](CCC(=O)O)NC(=O)CNC(=O)[C@H](CSCC(N)=O)NC(=O)[C@H](C(C)C)NC(=O)[C@@H]2CCCN2C1=O` [T20K-Acm], the “antiproliferative activity (Figure 2B)” value is on record as “total loss of antiproliferative activity”. Still for that read-out and setting: as for `CCN1C(=O)CC(SC[C@@H]2NC(=O)CNC(=O)[C@@H]3CCCN3C(=O)[C@H]([C@@H](C)O)NC(=O)[C@H](CC(N)=O)NC(=O)[C@H](CSC3CC(=O)N(CC)C3=O)NC(=O)[C@H]([C@@H](C)O)NC(=O)CNC(=O)CNC(=O)[C@H](C(C)C)NC(=O)[C@H](CSC3CC(=O)N(CC)C3=O)NC(=O)[C@H]([C@@H](C)O)NC(=O)[C@H](CCC(=O)O)NC(=O)CNC(=O)[C@H](CSC3CC(=O)N(CC)C3=O)NC(=O)[C@H](C(C)C)NC(=O)[C@@H]3CCCN3C(=O)[C@H](CC(C)C)NC(=O)CNC(=O)[C@H](CC(N)=O)NC(=O)[C@H](CCCNC(=N)N)NC(=O)[C@H]([C@@H](C)O)NC(=O)[C@H](CSC3CC(=O)N(CC)C3=O)NC(=O)[C@H](C(C)C)NC(=O)[C@@H]3CCCN3C(=O)[C@H](Cc3c[nH]c4ccccc34)NC(=O)[C@H](CO)NC(=O)[C@H](CSC3CC(=O)N(CC)C3=O)NC(=O)[C@H](CCCCN)NC2=O)C1=O` (stereo partly shown) [T20K-Nem], the entry is “total loss of antiproliferative activity”; as for `CSSC[C@@H]1NC(=O)CNC(=O)[C@@H]2CCCN2C(=O)[C@H]([C@@H](C)O)NC(=O)[C@H](CC(N)=O)NC(=O)[C@H](CSSC)NC(=O)[C@H]([C@@H](C)O)NC(=O)CNC(=O)CNC(=O)[C@H](C(C)C)NC(=O)[C@H](CSSC)NC(=O)[C@H]([C@@H](C)O)NC(=O)[C@H](CCC(=O)O)NC(=O)CNC(=O)[C@H](CSSC)NC(=O)[C@H](C(C)C)NC(=O)[C@@H]2CCCN2C(=O)[C@H](CC(C)C)NC(=O)CNC(=O)[C@H](CC(N)=O)NC(=O)[C@H](CCCNC(=N)N)NC(=O)[C@H]([C@@H](C)O)NC(=O)[C@H](CSSC)NC(=O)[C@H](C(C)C)NC(=O)[C@@H]2CCCN2C(=O)[C@H](Cc2c[nH]c3ccccc23)NC(=O)[C@H](CO)NC(=O)[C@H](CSSC)NC(=O)[C@H](CCCCN)NC1=O` [T20K-S-methyl], “total loss of antiproliferative activity”. For “GLPVCGETCVGGTCNTPGCKCSWPVCTR↓N (head to tail) [cyclic reduced T20K]”, the “antiproliferative activity (Figure 1D)” value (tested concentration range up to 10 μM (∼29 μg/mL), mean ± SD of three biological replicates relative to stimulated control) is reported as “lost activity”.
